Values after ≈ are worked out from the molar mass of the structure shown.
Tests used:
C. albicans 28A = assay: Microbroth dilution MIC80; type: cell-based; details: Candida albicans, 28A
Text: (§1) Compound library. The thiosemicarbazone derivatives Triapine and COTI-2 were purchased from Med Chem Express (MCE). The other 87 thiosemicarbazones used in this study were previously synthesized by our collaborators (1, 2). Their structures are shown in Table 1 and Table S1 to help the reader clearly understand the relationship between structure and activity.
(§2) Strains and culture conditions. Clinically derived C. albicans isolates, including G5, F5, and Gu5, were kindly provided by Professor Joachim Morschhäuser of the University of Würzburg. Other clinical C. albicans isolates were kindly donated by Professor Qingguo Qi of Shandong University and Qianfoshan Hospital of Shandong Province Other Candida strains were obtained from Jinan Central Hospital.
(§3) The zap1 mutant and its complemented strain were kindly provided by Professor Aaron P. Mitchell of Carnegie Mellon University (3). The C. neoformans strains used in this study was kindly donated by Professor Guojian Liao of Southwest University and A. fumigatus strain used in this study was provided by Professor Ling Lu of Nanjing Normal University. Before in vitro and in vivo experiments, all C. albicans strains were grown on YPD agar plates. After culturing at 30°C for 24 h, colonies of each strain were cultured in liquid YPD medium at 30°C with continuous shaking […]
(§4) Antifungal susceptibility testing. To determine in vitro antifungal activities, the microbroth dilution method was carried out in RPMI1640 medium according to the guidelines of the Clinical and Laboratory Standards Institute (4, 5). The initial concentration in RPMI1640 medium was 1 × 10^3 CFU/mL for the C. albicans and C. neoformans suspensions but 1 × 10^4 CFU/mL for A. fumigatus. The range of final drug concentrations was 0.0156–64 μg/mL. The plates were incubated at35°C for 24 […]
(§5) h (for C. albicans, C. krusei, C. tropicalis, C. parapsilosis) or 48 h (for C. neoformans, A. fumigatus). The MIC was determined based on visible growth inhibition compared with the control. All experiments were performed in duplicate. […]

C. albicans CA4 = assay: Microbroth dilution MIC80; type: cell-based; details: Candida albicans, CA4
Text: as §1, §2, §3, §4, §5

C. albicans 11f = assay: Microbroth dilution MIC80; type: cell-based; details: Candida albicans, 11F
Text: as §1, §2, §3, §4, §5

C. neoformans 108 = assay: Microbroth dilution MIC80; type: cell-based; details: Cryptococcus neoformans, 108
Text: as §1, §2, §3, §4, §5

C. albicans YEM15 = assay: Microbroth dilution MIC80; type: cell-based; details: Candida albicans, YEM15
Text: as §1, §2, §3, §4, §5

C. albicans 24g = assay: Microbroth dilution MIC80; type: cell-based; details: Candida albicans, 24G
Text: as §1, §2, §3, §4, §5

C. albicans F5 = assay: Microbroth dilution MIC80; type: cell-based; details: Candida albicans, F5
Text: as §1, §2, §3, §4, §5

C. albicans CA3 = assay: Microbroth dilution MIC80; type: cell-based; details: Candida albicans, CA3
Text: as §1, §2, §3, §4, §5

A. fumigatus 1161 = assay: Microbroth dilution MIC80; type: cell-based; details: Aspergillus fumigatus, 1161
Text: as §1, §2, §3, §4, §5

C. albicans YEM13 = assay: Microbroth dilution MIC80; type: cell-based; details: Candida albicans
Text: as §1, §2, §3, §4, §5

C. albicans DSY654 = assay: Microbroth dilution MIC80; type: cell-based; details: Candida albicans
Text: as §1, §2, §3, §4, §5

C. albicans CA1 = assay: Microbroth dilution MIC80; type: cell-based; details: Candida albicans, CA1
Text: as §1, §2, §3, §4, §5

C. albicans 11e = assay: Microbroth dilution MIC80; type: cell-based; details: Candida albicans, 11E
Text: as §1, §2, §3, §4, §5

C. albicans 28D = assay: Microbroth dilution MIC80; type: cell-based; details: Candida albicans, 28D
Text: as §1, §2, §3, §4, §5

C. albicans 28I = assay: Microbroth dilution MIC80; type: cell-based; details: Candida albicans, 28I
Text: as §1, §2, §3, §4, §5

C. tropicalis CT2 = assay: Microbroth dilution MIC80; type: cell-based; details: Candida tropicalis, CT2
Text: as §1, §2, §3, §4, §5

[1] = system: mammalian cells of 16HBE or HepG2; assay: CCK-8 reduction assay, mitochondrial dehydrogenase activity; type: cell-based, human; details: 5 μg/mL, 12 h or 48 h
Description: the fluorescent complex […] (CTF) is commonly used to indicate the intensity of microbial respiration. C. albicans SC5314 treated with 19ak was stained with 1 mM CTC for 30 min, followed by flow cytometry analysis of respiratory activity based on fluorescence intensity. Images of cells were obtained using a fluorescence microscope (IX71, Olympus, Tokyo, Japan). The Cell Counting Kit-8 (CCK-8) assay is used to measure the dehydrogenase activity in the mitochondria of C. albicans or mammalian cells. C. albicans SC5314 (5 × 10^6 cells/mL in RPMI1640 medium) were treated with different concentrations of 19ak in 96-well plates at 30°C for 12 h or 48 h. 10 μL of CCK-8 solution was added to each well. After an additional 2 h of incubation, OD450 in each well was detected with a microplate reader. […]
Mitochondrial isolation and detection of mitochondrial respiratory chain complex activity. […] The activities of mitochondrial respiratory chain complexes I-IV were determined by using the Micro Mitochondrial Respiratory Chain Complex Activity Assay Kit (Solarbio, Beijing, China). The concentration of protein was determined using the BCA Protein Assay Kit (Beyotime, Haimen, China).
Mitochondrial complex activity was expressed as nmol/min/mg protein. […]

G. mellonella = assay: Toxicity of 19ak in G. mellonella larvae; type: in vivo, Galleria mellonella; details: 10 μg per larva, 4 days
Description: Larvae of normal size and in good condition were injected with 10 μL of 19ak (1 mg/mL) or PBS. The survival of the larvae was monitored daily for 4 days.

## C/C(=N\NC(=S)N(C)C)c1ccccn1 [Compound 19ak]
C. albicans 28A
  MIC80: 0.125 mg/L (≈ 0.562 µM)
C. albicans CA4
  MIC80: 0.125 mg/L (≈ 0.562 µM)
C. albicans 11f
  MIC80: 1 mg/L (≈ 4.5 µM)
C. neoformans 108
  MIC80: 0.25 mg/L (≈ 1.12 µM)
C. albicans YEM15
  MIC80: 0.25 mg/L (≈ 1.12 µM)
C. albicans 24g
  MIC80: 0.25 mg/L (≈ 1.12 µM)
C. albicans F5
  MIC80: 0.5 mg/L (≈ 2.25 µM)
C. albicans CA3
  MIC80: 0.125 mg/L (≈ 0.562 µM)
A. fumigatus 1161
  MIC80: 0.5 mg/L (≈ 2.25 µM)
C. albicans YEM13
  MIC80: 0.5 mg/L (≈ 2.25 µM)
C. albicans DSY654
  MIC80: 0.125 mg/L (≈ 0.562 µM)
C. albicans CA1
  MIC80: 0.25 mg/L (≈ 1.12 µM)
C. albicans 11e
  MIC80: 1 mg/L (≈ 4.5 µM)
C. albicans 28D
  MIC80: 0.125 mg/L (≈ 0.562 µM)
C. albicans 28I
  MIC80: 0.125 mg/L (≈ 0.562 µM)
C. tropicalis CT2
  MIC80: 0.5 mg/L (≈ 2.25 µM)
[1]
  Mitochondrial dehydrogenase activity of mammalian cells (CCK-8): minimal inhibitory effect
G. mellonella
  Survival of uninfected larvae (toxicity): all treated larvae were still alive

From article PMC9241695, “Selective Metal Chelation by a Thiosemicarbazone Derivative Interferes with Mitochondrial Respiration and Ribosome Biogenesis in Candida albicans” (Microbiology Spectrum, 2022)
